Assay results taken from patent US20060069132A1, “Azolecarboxamide herbicides” (priority 2004, published 2006).

How the values were obtained:
[1] = test system: barnyardgrass; assay: Test A pre-/postemergence herbicide test; type: in vivo, Echinochloa crus-galli
Method in brief: (§1)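 Sandy loam soil given preemergence directed spray; plants at 2 to 10 cm, one- to two-leaf stage, sprayed to runoff postemergence, compounds in non-phytotoxic solvent with surfactant. Injury rated visually versus untreated controls after about ten greenhouse days, 0 (no effect) to 100 (complete control); dash means not tested.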

[2] = test system: large crabgrass; assay: Test A pre-/postemergence herbicide test; type: in vivo, Digitaria sanguinalis
Method in brief: as §1

[3] = test system: giant foxtail; assay: Test A pre-/postemergence herbicide test; type: in vivo, Setaria faberi
Method in brief: as §1

[4] = test system: morningglory; assay: Test A pre-/postemergence herbicide test; type: in vivo, Ipomoea spp.
Method in brief: as §1

[5] = test system: redroot pigweed; assay: Test A pre-/postemergence herbicide test; type: in vivo, Amaranthus retroflexus
Method in brief: as §1

[6] = test system: velvetleaf; assay: Test A pre-/postemergence herbicide test; type: in vivo, Abutilon theophrasti
Method in brief: as §1

[7] = test system: barnyardgrass; assay: Test B pre-/postemergence herbicide test; type: in vivo, Echinochloa crus-galli; conditions: for Barnyardgrass plant response rating: postemergence, visual rating, scale 0 (no effect) to 100 (complete control)
Method in brief: (§2)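 Test chemicals in a non-phytotoxic solvent mixture with surfactant were applied preemergence to seeded species and postemergence to plants 2-18 cm tall (1- to 4-leaf stage); rice and barnyardgrass were also tested in a flooded paddy at the 2-leaf stage. Visual rating versus controls after 13-15 days in greenhouse, scale 0 (no effect) to 100 (complete control).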

[8] = test system: Surinam grass; assay: Test B pre-/postemergence herbicide test; type: in vivo, Urochloa decumbens; conditions: for Surinam Grass plant response rating: postemergence, visual rating, scale 0 (no effect) to 100 (complete control)
Method in brief: (§3)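 Formulation: non-phytotoxic solvent mix with surfactant. Timing: preemergence on seed and postemergence on 2–18 cm plants, applied concurrently. Readout after 13–15 d greenhouse: visual 0–100 control rating against controls.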

[9] = test system: cocklebur; assay: Test B pre-/postemergence herbicide test; type: in vivo, Xanthium strumarium; conditions: for Cocklebur plant response rating: postemergence, visual rating, scale 0 (no effect) to 100 (complete control)
Method in brief: as §2

[10] = test system: corn; assay: Test B pre-/postemergence herbicide test; type: in vivo, Zea mays; conditions: for Corn plant response rating: postemergence, visual rating, scale 0 (no effect) to 100 (complete control)
Method in brief: as §3

[11] = test system: large crabgrass; assay: Test B pre-/postemergence herbicide test; type: in vivo, Digitaria sanguinalis; conditions: for Crabgrass, Large plant response rating: postemergence, visual rating, scale 0 (no effect) to 100 (complete control)
Method in brief: as §3

[12] = test system: giant foxtail; assay: Test B pre-/postemergence herbicide test; type: in vivo, Setaria faberi; conditions: for Foxtail, Giant plant response rating: postemergence, visual rating, scale 0 (no effect) to 100 (complete control)
Method in brief: as §3

[13] = test system: lambsquarters; assay: Test B pre-/postemergence herbicide test; type: in vivo, Chenopodium album; conditions: for Lambsquarters plant response rating: postemergence, visual rating, scale 0 (no effect) to 100 (complete control)
Method in brief: as §3

[14] = test system: morningglory; assay: Test B pre-/postemergence herbicide test; type: in vivo, Ipomoea coccinea; conditions: for Morningglory plant response rating: postemergence, visual rating, scale 0 (no effect) to 100 (complete control)
Method in brief: as §2

[15] = test system: pigweed; assay: Test B pre-/postemergence herbicide test; type: in vivo, Amaranthus retroflexus; conditions: for Pigweed plant response rating: postemergence, visual rating, scale 0 (no effect) to 100 (complete control)
Method in brief: as §3

[16] = test system: rice; assay: Test B pre-/postemergence herbicide test; type: in vivo, Oryza sativa; conditions: preemergence
Method in brief: as §3

[17] = test system: velvetleaf; assay: Test B pre-/postemergence herbicide test; type: in vivo, Abutilon theophrasti; conditions: for Velvetleaf plant response rating: postemergence, visual rating, scale 0 (no effect) to 100 (complete control)
Method in brief: as §3

[18] = test system: blackgrass; assay: Test B postemergence herbicide test; type: in vivo, Alopecurus myosuroides; conditions: postemergence, visual rating, scale 0 (no effect) to 100 (complete control)
Method in brief: (§4)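 Paddy species grown to the 2-leaf stage under flooding; blackgrass sprayed postemergence at 2–18 cm (1- to 4-leaf stage). Plants kept in a greenhouse for 13 to 15 days, then visually rated against controls on 0 (no effect) to 100 (complete control).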

[19] = test system: wheat; assay: Test B postemergence herbicide test; type: in vivo, Triticum aestivum; design: key to Wheat plant response rating: 0 = no effect, 100 = complete control; conditions: postemergence, visual rating, scale 0 (no effect) to 100 (complete control)
Method in brief: (§5)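 Greenhouse test; postemergence application to plants at 1–4 leaves (2–18 cm); paddy species at 2 leaves; evaluated visually vs controls at 13–15 days; scale 0–100 (100 = complete control).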

[20] = test system: wild oat; assay: Test B postemergence herbicide test; type: in vivo, Avena fatua; conditions: postemergence, visual rating, scale 0 (no effect) to 100 (complete control)
Method in brief: as §5

[21] = test system: rice; assay: Test B flooded paddy test; type: in vivo, Oryza sativa; conditions: 1000 g ai/ha, visual rating, scale 0 to 100 (0 no effect, 100 complete control), 13 to 15 days
Method in brief: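 Scale 0–100: zero equals no visible effect, 100 complete control, judged by eye relative to controls. Timing: 13 to 15 days in greenhouse post-treatment. Growth stage at spraying: two leaves (paddy) or one to four leaves, 2–18 cm (postemergence).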

[22] = test system: small flower umbrella sedge; assay: Test B flooded paddy test; type: in vivo, Cyperus difformis; conditions: 1000 g ai/ha, visual rating, scale 0 to 100 (0 no effect, 100 complete control), 13 to 15 days
Method in brief: as §4

[23] = test system: ducksalad; assay: Test B flooded paddy test; type: in vivo, Heteranthera limosa; conditions: 1000 g ai/ha, visual rating, scale 0 to 100 (0 no effect, 100 complete control), 13 to 15 days
Method in brief: as §4

[24] = test system: barnyardgrass; assay: Test B flooded paddy test; type: in vivo, Echinochloa crus-galli; conditions: 1000 g ai/ha, visual rating, scale 0 to 100 (0 no effect, 100 complete control), 13 to 15 days
Method in brief: as §4

[25] = Postemergence, 500 g ai/ha, 0 to 100 scale, 0 no effect, 100 complete control
[26] = Postemergence, 2000 g ai/ha, 0 to 100 scale, 0 no effect, 100 complete control
[27] = Preemergence, 2000 g ai/ha, visual rating, 0 to 100 scale (0 no effect, 100 complete control)
[28] = preemergence, 500 g ai/ha, visual injury, 0 to 100 scale (0 no effect, 100 complete control)
[29] = 125 g ai/ha, 0 = no effect, 100 = complete control, preemergence
[30] = 500 g ai/ha, visual rating 0-100, 0 no effect, 100 complete control, preemergence

## C#CCNC(=O)c1cccc(NC(=O)c2sc(C(C)(C)C)nc2C)c1 [Compound 203]
[1]; [25]
  Barnyardgrass plant response rating: 10
[1]; [26]
  Plant response rating, Barnyardgrass: 30
[1]; [27]
  Barnyardgrass plant response rating: 60
[1]; [28]
  Barnyardgrass plant response rating: 10
[2]; [25]
  Crabgrass, Large plant response rating: 10
[2]; [26]
  Plant response rating, Crabgrass, Large: 15
[2]; [27]
  Crabgrass, Large plant response rating: 75
[2]; [28]
  Crabgrass, Large plant response rating: 50
[3]; [25]
  Foxtail, Giant plant response rating: 10
[3]; [26]
  Plant response rating, Foxtail, Giant: 20
[3]; [27]
  Foxtail, Giant plant response rating: 75
[3]; [28]
  Foxtail, Giant plant response rating: 30
[4]; [25]
  Morningglory plant response rating: 50
[4]; [26]
  Plant response rating, Morningglory: 55
[4]; [27]
  Morningglory plant response rating: 15
[4]; [28]
  Morningglory plant response rating: 10
[5]; [25]
  Pigweed plant response rating: 35
[5]; [26]
  Plant response rating, Pigweed: 80
[5]; [27]
  Pigweed plant response rating: 90
[5]; [28]
  Pigweed plant response rating: 90
[6]; [25]
  Velvetleaf plant response rating: 10
[6]; [26]
  Plant response rating, Velvetleaf: 10
[6]; [27]
  Velvetleaf plant response rating: 35
[6]; [28]
  Velvetleaf plant response rating: 15
[7]; [29]
  Barnyardgrass plant response rating (0 to 100 scale): 0
[7]; [30]
  Plant response rating, Barnyardgrass: 10
[7]; 125 g ai/ha
  Barnyardgrass plant response rating: 0
[7]; 500 g ai/ha
  Barnyardgrass plant response rating: 0
[8]; [29]
  Surinam Grass plant response rating (0 to 100 scale): 0
[8]; [30]
  Plant response rating, Surinam Grass: 0
[8]; 125 g ai/ha
  Surinam Grass plant response rating: 10
[8]; 500 g ai/ha
  Surinam Grass plant response rating: 20
[9]; [29]
  Cocklebur plant response rating (0 to 100 scale): 0
[9]; [30]
  Plant response rating, Cocklebur: 10
[9]; 125 g ai/ha
  Cocklebur plant response rating: 0
[9]; 500 g ai/ha
  Cocklebur plant response rating: 10
[10]; [29]
  Corn plant response rating (0 to 100 scale): 0
[10]; [30]
  Plant response rating, Corn: 0
[10]; 125 g ai/ha
  Corn plant response rating: 0
[10]; 500 g ai/ha
  Corn plant response rating: 10
[11]; [29]
  Crabgrass, Large plant response rating (0 to 100 scale): 30
[11]; [30]
  Plant response rating, Crabgrass, Large: 80
[11]; 125 g ai/ha
  Crabgrass, Large plant response rating: 0
[11]; 500 g ai/ha
  Crabgrass, Large plant response rating: 10
[12]; [29]
  Foxtail, Giant plant response rating (0 to 100 scale): 0
[12]; [30]
  Plant response rating, Foxtail, Giant: 10
[12]; 125 g ai/ha
  Foxtail, Giant plant response rating: 0
[12]; 500 g ai/ha
  Foxtail, Giant plant response rating: 10
[13]; [29]
  Lambsquarters plant response rating (0 to 100 scale): 10
[13]; [30]
  Plant response rating, Lambsquarters: 30
[13]; 125 g ai/ha
  Lambsquarters plant response rating: 10
[13]; 500 g ai/ha
  Lambsquarters plant response rating: 50
[14]; [29]
  Morningglory plant response rating (0 to 100 scale): 0
[14]; [30]
  Plant response rating, Morningglory: 10
[14]; 125 g ai/ha
  Morningglory plant response rating: 0
[14]; 500 g ai/ha
  Morningglory plant response rating: 30
[15]; [29]
  Pigweed plant response rating (0 to 100 scale): 10
[15]; [30]
  Plant response rating, Pigweed: 90
[15]; 125 g ai/ha
  Pigweed plant response rating: 0
[15]; 500 g ai/ha
  Pigweed plant response rating: 10
[16]; 125 g ai/ha, 0 = no effect, 100 = complete control
  Rice plant response rating (0 to 100 scale): 0
[16]; 500 g ai/ha, visual rating 0-100, 0 no effect, 100 complete control
  Plant response rating, Rice: 0
[17]; [29]
  Velvetleaf plant response rating (0 to 100 scale): 0
[17]; [30]
  Plant response rating, Velvetleaf: 20
[17]; 125 g ai/ha
  Velvetleaf plant response rating: 0
[17]; 500 g ai/ha
  Velvetleaf plant response rating: 10
[18]; 125 g ai/ha
  Blackgrass plant response rating: 0
[18]; 500 g ai/ha
  Blackgrass plant response rating: 0
[19]; 125 g ai/ha
  Wheat plant response rating: 0
[19]; 500 g ai/ha
  Wheat plant response rating: 0
[20]; 125 g ai/ha
  Oat, Wild plant response rating: 0
[20]; 500 g ai/ha
  Oat, Wild plant response rating: 10
[21]
  Rice plant response rating: 0
[22]
  Sedge, Umbrella plant response rating: 0
[23]
  Ducksalad plant response rating: 0
[24]
  Barnyardgrass plant response rating: 0
